# According to PubChem BioAssay AID2060627 (Molecular Pharmacology Branch, DTP, NCI, 2025):
# “And” between values parts separate entries of the source, which are not always exact repeats. Equal entries are not always repeated.
# System: 156681-154-R-J1-PDC complex spheroid viability
# Assay: Anticancer human tumor 156681-154-R-J1-PDC patient-derived melanoma cell line growth inhibition [CLK]
# Conditions: for viability, T/C: stronger effect = lower value
# Method in brief: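 Multi-cell-type spheroids combined patient-derived tumor cells with HUVEC endothelial cells and human mesenchymal stem cells. Paired agents were dosed in half-log steps down from about clinical Cmax, or from 10 microM where Cmax was unknown.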
# [1] = curve of first compound, second compound 0.0316 µM
# [2] = curve of first compound, second compound 0.1 µM
# [3] = curve of first compound, second compound 0.316 µM
# [4] = curve of first compound, second compound 1 µM
# [5] = curve of first compound, second compound 3.16 µM
# [6] = curve of first compound, second compound 10 µM
# [7] = second compound 0.0316 µM, first compound 0.0316 µM
# [8] = second compound 0.0316 µM, first compound 0.1 µM
# [9] = second compound 0.0316 µM, first compound 0.316 µM
# [10] = second compound 0.0316 µM, first compound 1 µM
# [11] = second compound 0.0316 µM, first compound 3.16 µM
# [12] = second compound 0.0316 µM, first compound 10 µM
# [13] = second compound 0.1 µM, first compound 0.0316 µM
# [14] = second compound 0.1 µM, first compound 0.1 µM
# [15] = second compound 0.1 µM, first compound 0.316 µM
# [16] = second compound 0.1 µM, first compound 1 µM
# [17] = second compound 0.1 µM, first compound 3.16 µM
# [18] = second compound 0.1 µM, first compound 10 µM
# [19] = second compound 0.316 µM, first compound 0.0316 µM
# [20] = second compound 0.316 µM, first compound 0.1 µM
# [21] = second compound 0.316 µM, first compound 0.316 µM
# [22] = second compound 0.316 µM, first compound 1 µM
# [23] = second compound 0.316 µM, first compound 3.16 µM
# [24] = second compound 0.316 µM, first compound 10 µM
# [25] = second compound 1 µM, first compound 0.0316 µM
# [26] = second compound 1 µM, first compound 0.1 µM
# [27] = second compound 1 µM, first compound 0.316 µM
# [28] = second compound 1 µM, first compound 1 µM
# [29] = second compound 1 µM, first compound 3.16 µM
# [30] = second compound 1 µM, first compound 10 µM
# [31] = second compound 3.16 µM, first compound 0.0316 µM
# [32] = second compound 3.16 µM, first compound 0.1 µM
# [33] = second compound 3.16 µM, first compound 0.316 µM
# [34] = second compound 3.16 µM, first compound 1 µM
# [35] = second compound 3.16 µM, first compound 3.16 µM
# [36] = second compound 3.16 µM, first compound 10 µM
# [37] = second compound 10 µM, first compound 0.0316 µM
# [38] = second compound 10 µM, first compound 0.1 µM
# [39] = second compound 10 µM, first compound 0.316 µM
# [40] = second compound 10 µM, first compound 1 µM
# [41] = second compound 10 µM, first compound 3.16 µM
# [42] = second compound 10 µM, first compound 10 µM
# 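Note: spheroids exposed to the agents for seven days.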
# 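Throughout, for viability, T/C: 100% = DMSO vehicle control viability.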
compound,measurement,setting,value
CC(=O)O[C@H]1C(=O)[C@@]2(C)[C@H]([C@H](OC(=O)c3ccccc3)[C@]3(O)C[C@H](OC(=O)[C@H](O)[C@@H](NC(=O)c4ccccc4)c4ccccc4)C(C)=C1C3(C)C)[C@]1(OC(C)=O)CO[C@@H]1C[C@@H]2O + CN1CCN(c2cc(C(=O)Nc3cc4cc(-c5cnn(C)c5)ccc4cn3)ccn2)CC1,IC50,[1],< 0.0316 µM
same,IC50,[2],< 0.0316 µM
same,IC50,[3],< 0.0316 µM
same,IC50,[4],< 0.0316 µM
same,IC50,[5],< 0.0316 µM
same,IC50,[6],< 0.0316 µM
same,"viability, T/C",[7],19.4%
same,"viability, T/C",[8],13.1%
same,"viability, T/C",[9],18.9%
same,"viability, T/C",[10],16.5%
same,"viability, T/C",[11],23.6%
same,"viability, T/C",[12],28.9%
same,"viability, T/C",[13],17.6%
same,"viability, T/C",[14],14.6%
same,"viability, T/C",[15],15.4%
same,"viability, T/C",[16],12.5%
same,"viability, T/C",[17],16.3%
same,"viability, T/C",[18],24.3%
same,"viability, T/C",[19],15.1%
same,"viability, T/C",[20],21.1%
same,"viability, T/C",[21],13.8%
same,"viability, T/C",[22],13%
same,"viability, T/C",[23],14.8%
same,"viability, T/C",[24],16.8%
same,"viability, T/C",[25],0.09%
same,"viability, T/C",[26],0.13%
same,"viability, T/C",[27],0.13%
same,"viability, T/C",[28],0.34%
same,"viability, T/C",[29],0.12%
same,"viability, T/C",[30],0.13%
same,"viability, T/C",[31],0.09%
same,"viability, T/C",[32],0.74%
same,"viability, T/C",[33],0.35%
same,"viability, T/C",[34],0.08%
same,"viability, T/C",[35],0.23%
same,"viability, T/C",[36],0.22%
same,"viability, T/C",[37],0.09%
same,"viability, T/C",[38],0.7%
same,"viability, T/C",[39],0.46%
same,"viability, T/C",[40],0.52%
same,"viability, T/C",[41],0.61%
same,"viability, T/C",[42],0.3%
O=c1[nH]cc(F)c(=O)[nH]1 + CNC(=O)c1ccc(Nc2nc(OC3CCCC3)c3c(-c4ccc5nc(C)oc5c4)c[nH]c3n2)c(OC)c1,IC50,[1],7.95 µM
same,IC50,[2],5.5 µM
same,IC50,[3],3.42 µM
same,IC50,[4],4.12 µM
same,IC50,[5],< 0.0316 µM
same,IC50,[6],< 0.0316 µM
same,"viability, T/C",[7],96.6%
same,"viability, T/C",[8],99%
same,"viability, T/C",[9],91.9%
same,"viability, T/C",[10],95.9%
same,"viability, T/C",[11],86.9%
same,"viability, T/C",[12],40.8%
same,"viability, T/C",[13],63.9%
same,"viability, T/C",[14],79.2%
same,"viability, T/C",[15],74.4%
same,"viability, T/C",[16],74.3%
same,"viability, T/C",[17],59.6%
same,"viability, T/C",[18],39.7%
same,"viability, T/C",[19],78.6%
same,"viability, T/C",[20],75.2%
same,"viability, T/C",[21],73.4%
same,"viability, T/C",[22],60.7%
same,"viability, T/C",[23],53.8%
same,"viability, T/C",[24],30.6%
same,"viability, T/C",[25],70.7%
same,"viability, T/C",[26],46.3%
same,"viability, T/C",[27],58.2%
same,"viability, T/C",[28],52.7%
same,"viability, T/C",[29],62.2%
same,"viability, T/C",[30],23.6%
same,"viability, T/C",[31],49.7%
same,"viability, T/C",[32],42.3%
same,"viability, T/C",[33],47.9%
same,"viability, T/C",[34],43.8%
same,"viability, T/C",[35],35%
same,"viability, T/C",[36],19.8%
same,"viability, T/C",[37],51%
same,"viability, T/C",[38],40.5%
same,"viability, T/C",[39],41.2%
same,"viability, T/C",[40],45.4%
same,"viability, T/C",[41],41.2%
same,"viability, T/C",[42],20.1%
CCCS(=O)(=O)Nc1ccc(F)c(C(=O)c2c[nH]c3ncc(-c4ccc(Cl)cc4)cc23)c1F,"viability, T/C",compound 0.0316 µM,90.6% and 79.6%
same,"viability, T/C",compound 0.1 µM,77.4% and 59.3%
same,"viability, T/C",compound 0.316 µM,99.6% and 96.6%
same,"viability, T/C",compound 1 µM,92.4% and 73.8%
same,"viability, T/C",compound 3.16 µM,85.8% and 83.2%
same,"viability, T/C",compound 10 µM,11.3% and 6.41%
same,IC50,curve of compound,5.5 µM and 4.99 µM
O=C(c1cc(Cc2n[nH]c(=O)c3ccccc23)ccc1F)N1CCN(C(=O)C2CC2)CC1 + CNC(=O)c1ccc(Nc2nc(OC3CCCC3)c3c(-c4ccc5nc(C)oc5c4)c[nH]c3n2)c(OC)c1,IC50,[1],> 10 µM
same,IC50,[2],> 10 µM
same,IC50,[3],> 10 µM
same,IC50,[4],0.481 µM
same,IC50,[5],< 0.0316 µM
same,IC50,[6],< 0.0316 µM
same,"viability, T/C",[7],98.2%
same,"viability, T/C",[8],108%
same,"viability, T/C",[9],92.3%
same,"viability, T/C",[10],103%
same,"viability, T/C",[11],92.5%
same,"viability, T/C",[12],79.3%
same,"viability, T/C",[13],65.4%
same,"viability, T/C",[14],72.5%
same,"viability, T/C",[15],65.4%
same,"viability, T/C",[16],80.9%
same,"viability, T/C",[17],82.8%
same,"viability, T/C",[18],60.5%
same,"viability, T/C",[19],78.9%
same,"viability, T/C",[20],69.3%
same,"viability, T/C",[21],76.3%
same,"viability, T/C",[22],71%
same,"viability, T/C",[23],70.3%
same,"viability, T/C",[24],54.3%
same,"viability, T/C",[25],59.7%
same,"viability, T/C",[26],48.5%
same,"viability, T/C",[27],48.9%
same,"viability, T/C",[28],47.9%
same,"viability, T/C",[29],42.8%
same,"viability, T/C",[30],25.8%
same,"viability, T/C",[31],47.8%
same,"viability, T/C",[32],48.2%
same,"viability, T/C",[33],47.9%
same,"viability, T/C",[34],45.2%
same,"viability, T/C",[35],35.2%
same,"viability, T/C",[36],20.2%
same,"viability, T/C",[37],50.6%
same,"viability, T/C",[38],37%
same,"viability, T/C",[39],38.6%
same,"viability, T/C",[40],43.1%
same,"viability, T/C",[41],27.5%
same,"viability, T/C",[42],15.6%
